US20140262287A1, “ENVIRONMENTALLY FRIENDLY QUATERNARY SALTS OF AMINES AND THEIR USE AS TEMPORARY AND/OR PERMANENT CLAY STABILIZERS AND METHODS FOR MAKING AND USING SAME” (CLEARWATER INTERNATIONAL, LLC, priority 2013, published 2014)

Columns and labels:
[1] = Clay stabilization test (water separation from 1% clay solution); conditions: dosage 0.5 (wt. %/100 mL); 60 minutes; 100 mL of 1% clay solution; (Top)/(Middle) printed in cell
Description: (§1) Clay Solution Preparation
To make 100 mL of a clay solution, measure 1 g of Cream Bentonite Clay or Weatherford Bentonite Clay material. Add 99 g of distilled water and shake bottle until all the clay is dissolved.
Measure 100 ml of clay solution in a graduated cylinder. Shake 10 times. Record separation time and clay precipitation.
Measure 100 mL of clay solution in a graduated cylinder and add 0.5 mL of the desired clay stabilizer. Shake 10 times. Record separation time and clay coagulation. Record clay deposition, swelling and water release.

[2] = Linear Swell after 23 hours; 6000 ppm; Bentonite pellet
Description: The Linear Swell Meter was OFITE 115V Dynamic Linear Swell Meter Model #150-80. 14 g of Bentonite was added to a pelletizercompactor and 10,000 psi pressure was applied for 30 minutes. The pellet was removed from the compactor. Ensure all components of the Linear Swell Meter are clean: transfer stand, cap for wafer tube, bottom plate, magnetic stir bar, Teflon washer, and cup. With both the screens in the linear swell meter cell, the swell meter was zeroed out by clicking on the specific cell(s) to be zeroed out and clicked “apply”. One of the screens from the cell was removed and the pellet was added on top of the other screen. The other screen was put on top of the pellet. The transfer stand was gently placed on top of the pellet. The cell was placed on the magnetic stir plate underneath the linear variable differential transformer (LVDT) to make sure that the spindle was directly centered on top of the transfer stand. The fluid to be tested was poured through the hole on the cap for the wafer tube, the box was checked to start the cell and “apply” was clicked. Doing this will start the test for the specific cell.

[3] = tested on: Fathead Minnow (pimephales promelas); assay: Acute toxicity minnow survival test; format: in vivo; conditions: for LC50: acute toxicity survival, Examples 4 and 5 range-finding and definitive test, TMAC and Example 3 range-finding test only; for toxicity to minnows compared with TMAC / prior art: comparison in words, data of Table II
Description: As a consequence, the “definitive” test gave a more precise LC50 value. LC50 was determined using a log-normal transformation coupled with linear regression between the bracketing no observed effect concentration (NOEC) and lowest observed effect concentration (LOEC). Both the range finding and definitive tests were run on Example 4 and Example 5. Only the ranging finding test was run for TMAC and Example 3.

[4] = Capillary suction timer clay stabilization test; conditions: 2 g Bentonite in 100 g solution
Description: A rock sample was placed in a Gyral Grinder and grinding of the rock sample was begun. The rock sample was ground for 1 hour using a timer. The ground rock sample was placed into a 200-mesh sieve. The aggregate that passed through the sieve was placed in a pan for testing and placed to the side.
Using a 100 mL volumetric flask, a solution was prepared that will be used to mix with the rock sample. At least one solution should be prepared as the sample with straight tap water will be used as a reference blank. 100 g of solution was added to a 250 mL beaker equipped with a magnetic stir bar. A specified amount of each shale inhibitor was added to the beaker. The beaker was placed on stir plate and stirring was begun at a speed at which a vortex reaches the bottom of the beaker. 2 g of the untreated Bentonite sample was added and a timer was set for 5 minutes. After 5 minutes, the stir plate was turned off, the solution was poured into a 100 mL graduated cylinder, and a timer was set for 15 minutes. After 15 minutes, the mixture was poured back into the beaker, the beaker was placed on the magnetic stir plate and stirring was restarted on the plate. Wait until the vortex returned and the clay had become dispersed.
A Venture Innovations capillary suction timer (CST) from Venture Chemicals, Inc. in Lafayette, La. was used in the tests. Before each test, the test head, filter paper, and stainless steel funnel were cleaned and dried. Make sure the cable from the test head was plugged into the control box and the reading on the control box display was reset to zero. A piece of 7×9 cm CST filter paper from Venture Innovations Inc. (part no. IFP-9053) was placed on the test head with the stainless steel probes facing down. The stainless steel funnel was fitted into the test head.
Using a 5-mL syringe, 5-mL of sample was withdrawn from the vortex. Consecutive samples were removed from the same position in the vortex, where the previous sample was taken. A 5 mL sample was charged into the stainless steel funnel. The 5 mL sample charge was repeated twice more. Instrument started automatically when a beep sounds from the control box. When this beep sounded, the timer started. […]

[5] = Water release clay stabilization test; set-up: unit not given here; conditions: 100 mL of 1 wt. % Wyoming Bentonite clay solution
Description: as §1
To make 1 wt. % clay solution, 23 g of Wyoming Bentonite Clay and 2277 g of distilled water were added to a bottle and shaken until all the clay was dissolved. […]
Measure 100 mL of clay solution into 6 graduated cylinders. […] The addition of the clay stabilizers at 0.1 mL, 0.2 mL, 0.4 mL, 0.6 mL, 0.8 mL, and 1.0 mL in 100 mL of a clay solution corresponds to 1, 2, 4, 6, 8 and 10 Gallons per Thousand (or gpt). Invert the cylinders 20 times. Start timer and record separation time and clay coagulation. Record clay deposition, swelling and water release.

Compound | Final Water (mL) [1] | % Swell [2] | LC50 [3] | toxicity to minnows compared with TMAC / prior art [3] | CST Time ([4]; CST concentration 4000 ppm) | CST Time ([4]; CST concentration 5000 ppm) | CST Time ([4]; CST concentration 6000 ppm) | WR (water release at 60 minutes) 2.0 gpt [5] | WR (water release at 60 minutes) 4.0 gpt [5] | WR (water release at 60 minutes) 6.0 gpt [5] | WR (water release at 60 minutes) 8.0 gpt [5] | WR (water release at 60 minutes) 10.0 gpt [5]
C[N+](C)(C)CCO.[Cl-] [Choline Chloride, reference compound] | 27 mL/60 minutes (Top) | 88.9% | – | – | – | – | – | – | – | – | – | –
CCOS(=O)(=O)[O-].CC[N+](CCO)(CCO)CCO [Example 5] | 20 mL/60 minutes (Middle) | – | 6030 µg/mL | much less toxic than TMAC | 90 s | 68 s | 92 s | 2 | 9 | 22 | 26 | 31
C[N+](C)(C)C.[Cl-] [tetramethylammonium chloride, reference compound] | – | – | 737 µg/mL | – | – | – | – | – | – | – | – | –
OCC[N+](CCO)(CCO)Cc1ccccc1.[Cl-] [Example 4] | – | – | 3160 µg/mL | much less toxic than TMAC | 18 s | – | – | 27 | 33 | 34 | 33 | 32
